Measured values as given in PubChem BioAssay (NCI).
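Step 1: Grow cells in 96-well plates. Step 2: Expose to compound for 48 hours at 5 concentrations. Step 3: Interpolate endpoints linearly; if unreached, use highest concentration. At the TGI there is no net growth.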 Where a SMILES comes first, the peptide text is derived from it. [ ]: non-standard residue; d: D form. The star is where a group is joined. Bn2Val = CC(C)[C@@H](C(=O)*)N(Cc1ccccc1)Cc1ccccc1; NHPiperonyl = c1cc2c(cc1CN*)OCO2; NMeV = CN[C@H](C(=O)O)C(C)C; dNMeA = CN[C@H](C)C(=O)O

What was measured:
Assay in all cases: DTP human tumour cell line panel, 48 h
SR leukemia = test system: SR leukemia
MDA-N = test system: MDA-N
SN12C renal = test system: SN12C renal
SW-620 colon = test system: SW-620 colon
IGROV1 ovarian = test system: IGROV1 ovarian
SK-MEL-28 melanoma = test system: SK-MEL-28 melanoma
MDA-MB-231 breast = test system: MDA-MB-231 breast
HS 578T breast = test system: HS 578T breast
CCRF-CEM leukemia = test system: CCRF-CEM leukemia
KM12 colon = test system: KM12 colon
NCI-H226 lung = test system: NCI-H226 lung
NCI-H522 lung = test system: NCI-H522 lung
SNB-19 CNS = test system: SNB-19 CNS
BT-549 breast = test system: BT-549 breast
HCC-2998 colon = test system: HCC-2998 colon
HT29 colon = test system: HT29 colon
786-0 renal = test system: 786-0 renal
CAKI-1 renal = test system: CAKI-1 renal
A498 renal = test system: A498 renal
HOP-92 NSCLC = test system: HOP-92 NSCLC

| SMILES | TGI (SR leukemia) [µM] | TGI (MDA-N) [µM] | TGI (SN12C renal) [µM] | TGI (SW-620 colon) [µM] | TGI (IGROV1 ovarian) [µM] | TGI (SK-MEL-28 melanoma) [µM] | TGI (MDA-MB-231 breast) [µM] | TGI (HS 578T breast) [µM] | TGI (CCRF-CEM leukemia) [µM] | TGI (KM12 colon) [µM] | TGI (NCI-H226 lung) [µM] | TGI (NCI-H522 lung) [µM] | TGI (SNB-19 CNS) [µM] | TGI (BT-549 breast) [µM] | TGI (HCC-2998 colon) [µM] | TGI (HT29 colon) [µM] | TGI (786-0 renal) [µM] | TGI (CAKI-1 renal) [µM] | TGI (A498 renal) [µM] | TGI (HOP-92 NSCLC) [µM] |
| --- | --- | --- | --- | --- | --- | --- | --- | --- | --- | --- | --- | --- | --- | --- | --- | --- | --- | --- | --- | --- |
| Cn1cc(S(=O)(=O)NC(=O)Nc2ccc(Cl)cc2)c(=O)c2ccc(Cl)cc21 | > 100 | > 100 | > 100 | > 100 | > 100 | > 100 | > 100 | > 100 | > 100 | > 100 | > 100 | 41.4 | > 100 | > 100 | > 100 | > 100 | > 100 | > 100 | – | – |
| Nc1cc(N2CCOCC2)nc(=O)n1-c1ccccc1 | > 100 | > 100 | > 100 | > 100 | > 100 | > 100 | – | – | > 100 | > 100 | > 100 | – | > 100 | > 100 | > 100 | > 100 | > 100 | > 100 | > 100 | > 100 |
| [N-]=[N+]=CC(=O)OC1CCc2ccccc21 (configuration not stated) | > 100 | > 100 | > 100 | > 100 | > 100 | > 100 | > 100 | – | – | – | > 100 | > 100 | > 100 | > 100 | > 100 | > 100 | > 100 | 52.5 | > 100 | > 100 |
| COc1ccc2c(c1)OCC1=C2Oc2ccccc2C1 | > 100 | 71.1 | > 100 | > 100 | > 100 | – | > 100 | – | – | > 100 | > 100 | 70.2 | – | 71.5 | 54 | 90 | > 100 | > 100 | > 100 | – |
| O=C1c2ccccc2-c2nc(-c3cccs3)cc3c2c1nc1ccccc13 | 34.5 | 20.4 | > 100 | 31 | 92.5 | 36.8 | > 100 | 90 | > 100 | > 100 | > 100 | 83.5 | > 100 | > 100 | 68 | 62.6 | > 100 | > 100 | – | > 100 |
| CCOP(=O)(OCC)c1cc2cc(O)ccc2oc1=O | > 100 | > 100 | > 100 | > 100 | > 100 | > 100 | > 100 | > 100 | > 100 | > 100 | > 100 | > 100 | > 100 | – | > 100 | > 100 | > 100 | > 100 | > 100 | > 100 |
| CCCCC1CCCCCCc2[nH]c(/C=C3\N=C(c4ccc[nH]4)C=C3OC)cc21 (configuration not stated) | – | 1.35 | 1.32 | 1.15 | 1.29 | 0.492 | 1.76 | 1.62 | 0.566 | 4.91 | 3.27 | 1.38 | 8.65 | 1.29 | 1.02 | 1.11 | 0.101 | 4.32 | 1.86 | 0.42 |
| CC(C)C(C)C(O)C(O)C(C)C1CCC2C3COC(=O)C4CC(O)C(O)CC4(C)C3CCC12C (configuration not stated) | – | > 100 | > 100 | > 100 | > 100 | > 100 | > 100 | > 100 | 67.5 | > 100 | > 100 | > 100 | > 100 | > 100 | > 100 | > 100 | > 100 | 26.3 | > 100 | > 100 |
| O=C1CSC(c2c[nH]c3ccccc23)N1c1cccc([N+](=O)[O-])c1 (configuration not stated) | > 100 | > 100 | > 100 | > 100 | > 100 | > 100 | > 100 | – | > 100 | > 100 | – | > 100 | > 100 | > 100 | > 100 | > 100 | > 100 | – | – | > 100 |
| COc1c(C(=O)/C(=N/Nc2cccc(Cl)c2)C(C)=O)c(O)c(OC)c2occc12 | > 100 | > 100 | > 100 | > 100 | > 100 | > 100 | > 100 | > 100 | > 100 | > 100 | > 100 | > 100 | > 100 | – | > 100 | > 100 | > 100 | > 100 | – | > 100 |
| OC1C2CCC3C2CC(C(O)(c2ccccc2)c2ccccc2)C13 (configuration not stated) | 69.7 | > 100 | 47 | > 100 | > 100 | > 100 | > 100 | > 100 | 95.1 | > 100 | 92.6 | > 100 | > 100 | – | > 100 | > 100 | > 100 | > 100 | > 100 | > 100 |
| O=C(O)COc1cc(-c2ccccc2F)nc2cc3c(cc12)OCO3 | > 100 | > 100 | > 100 | > 100 | > 100 | > 100 | > 100 | – | > 100 | > 100 | > 100 | – | – | > 100 | > 100 | > 100 | > 100 | > 100 | – | > 100 |
| c1cc2c(cc1NC1=NCCO1)CCCC2 | – | 3.18 | 36.6 | 47.3 | 23.5 | 27.2 | 6.1 | 23 | > 26.7 | 10.5 | 11.4 | 18 | > 84.2 | 75.7 | 9.8 | 7.28 | 16.7 | > 88.1 | 9.74 | 19.3 |
| CC(C)[C@H](NC(=O)[C@H](C(C)C)N(Cc1ccccc1)Cc1ccccc1)C(=O)N(C)[C@H](C(=O)N1CCC[C@H]1C(=O)N(C)[C@H](C)C(=O)NCc1ccc2c(c1)OCO2)C(C)C (Bn2Val-V[NMeV]P[dNMeA]-NHPiperonyl) | – | 49.4 | – | > 100 | > 100 | > 100 | > 100 | > 100 | 8.72 | > 100 | > 100 | > 100 | > 100 | 57.5 | 37.1 | 9.04 | > 83.2 | > 100 | – | – |
| CCC(C#N)NCc1ccc(CNC(C#N)CC)cc1 (configuration not stated) | – | > 100 | > 100 | > 100 | > 100 | > 100 | > 100 | > 100 | > 100 | > 100 | > 100 | > 100 | > 100 | > 100 | > 100 | > 100 | > 100 | > 100 | > 100 | > 100 |
| S=C(Nc1ccc(Cl)cc1)c1ccc(CN2CCCCC2)s1 | 19.5 | 16.8 | 39.2 | > 100 | 8.82 | 37.2 | – | > 100 | 12.5 | 56.8 | – | 75 | – | 79.3 | 21.6 | 19.5 | > 100 | 52.1 | 29 | – |
| O=C1C(=Cc2cccc(Cl)c2)N=C(c2ccccc2)N1n1c(-c2ccccc2)nc2ccccc2c1=O | > 100 | > 100 | > 100 | > 100 | > 100 | > 100 | > 100 | > 100 | > 100 | > 100 | > 100 | 51.7 | > 100 | > 100 | > 100 | > 100 | > 100 | > 100 | – | 81.4 |
| Nc1c(C(=O)c2ccc(Cl)cc2)[nH]c(Nc2ccc(Cl)cc2)c1C(=S)Nc1ccccc1 | 7.41 | 21.5 | 22.5 | 51.9 | 17.3 | 14.4 | 18.1 | – | > 100 | 31.5 | 19.4 | 20.3 | 21.8 | 8.02 | 7.7 | 18 | 9.41 | 23.2 | 28.9 | 22.2 |
| O=C(CC(C(=O)c1cccs1)c1ccsc1)c1ccc(Cl)cc1 (configuration not stated) | > 100 | > 100 | > 100 | > 100 | > 100 | > 100 | > 100 | > 100 | > 100 | > 100 | > 100 | – | > 100 | – | > 100 | > 100 | > 100 | > 100 | > 100 | – |
| Cc1ccc2c(=O)cc(-c3cc4ccccc4s3)[nH]c2n1 | – | > 100 | > 100 | > 100 | > 100 | > 100 | > 100 | > 100 | > 100 | > 100 | 98.6 | > 100 | > 100 | > 100 | > 100 | > 100 | > 100 | > 100 | – | – |
| COC1CC(=O)C2C(=O)N(c3ccccc3)C(=O)C23C(C(=O)c2ccccc2)=C(C)NC13O (configuration not stated) | – | 72.2 | 37.1 | 23 | 27.5 | 23.6 | 40 | 57.7 | 28.9 | 35.6 | – | 6.3 | 51.1 | > 100 | – | 34.2 | 5.38 | 22.1 | 47.7 | 25.2 |
| COc1c(N2CCCCC2)c2c(=O)c3ccccc3oc2c2cc(C)oc12 | – | 63.9 | 84.8 | > 100 | – | > 100 | 44.2 | 79.6 | > 100 | 62.4 | 45.4 | – | > 100 | 97.9 | > 100 | 38.6 | > 100 | 37.3 | 61.6 | 55.6 |
| N=C1/C(=C/c2ccco2)C(=O)N=C2SC=NN12 | > 100 | > 100 | > 100 | > 100 | > 100 | > 100 | > 100 | > 100 | > 100 | > 100 | > 100 | > 100 | > 100 | > 100 | > 100 | > 100 | > 100 | > 100 | – | > 100 |
| Clc1ccc(C2ON=C(c3ccccc3)N2C23CC4CC(CC(C4)C2)C3)cc1Cl (configuration not stated) | – | > 10 | > 10 | > 10 | > 10 | > 10 | > 10 | > 10 | > 10 | > 10 | > 10 | > 10 | > 10 | > 10 | > 10 | > 10 | > 10 | > 10 | > 10 | > 10 |
| CCOc1cc(/C=N\O)cc(/C=N/O)c1O | > 100 | > 100 | > 100 | > 100 | – | > 100 | > 100 | > 100 | > 100 | > 100 | > 100 | – | > 100 | – | > 100 | > 100 | > 100 | 61.1 | 51.1 | 60.4 |
| CC[C@]1(Cc2ccc(OC)c(OC)c2)C=[N+]([O-])O[C@H](OC2CCCCC2c2ccccc2)[C@@H]1OC(C)=O (some centres not stated) | 91.1 | > 100 | > 100 | > 100 | > 100 | > 100 | > 100 | – | 68.3 | > 100 | > 100 | > 100 | > 100 | > 100 | > 100 | > 100 | > 100 | 56.8 | > 100 | > 100 |
